Measured values from paper PMC5770468, “Cardiac glycoside/aglycones inhibit HIV-1 gene expression by a mechanism requiring MEK1/2-ERK1/2 signaling” (Scientific Reports, 2018).

Key:
HIV-1 Gag-GFP expression = assay: Recovery of HIV-1 Gag-GFP expression by pathway inhibitors in the presence of CSs, HeLa rtTA-HIV(Gag-GFP) cells; assay type: cell-based; conditions: 12 μM U0126; 5.5 μM Selumetinib; 10 μM LY294002; 5 µM KB-R7943; CSs at ~IC80
Procedure: (§1) Figure 5 Effect of modulating NKA expression, [Ca^2+]i, and PI3K-AKT on HIV-1 gene expression. Depletion of the NKA perturbs HIV-1 RNA processing (n ≥ 3, mean, s.e.m.). HeLa rtTA-HIV(Gag-GFP) cells were transduced with two shRNAs (E6/E10) to knockdown expression of the NKA α1 subunit and their effect on HIV-1 gene expression analyzed. After positive selection of cells with puromycin for 24–48 h, HIV-1 expression was Dox induced for 20 h, and cells harvested for analyses. Total mRNA (and protein) was isolated from cells, reverse transcribed, and analyzed by qRT-PCR and data normalized to β-actin (a,c). Results are shown relative to Stuffer (+). (a) Expression levels of NKA α1 mRNAs assayed by qRT-PCR. (b) HIV-1 Gag expression assayed by p24^CA ELISA of cell lysates (40 μg). (c) Accumulation of HIV-1 US (black), SS (white), and MS (gray) mRNAs quantified by qRT-PCR. (d–g) CSs suppress HIV-1 gene expression independent of intracellular Ca^2+ flux/signaling and PI3K-AKT activation. HeLa rtTA-HIV(Gag-GFP) cells were pre-treated with either a chelator of [Ca^2+]i (5 µM BAPTA-AM, [Ca2+]ii), inhibitors of NCX Ca^2+-entry (5 µM KB-R7943, NCXi) or PI3K (10 μM LY294002, PI3Ki), or untreated (DMSO, no pathway inhibitor) for ~2 h prior to treatment with ~IC80s of CSs or DMSO for 4 h, and Dox induced for ~20 h. The pathway used by a CS to inhibit HIV-1 expression was determined by monitoring for recovery of Gag-GFP expression by measuring GFP fluorescence in cell lysates (and initially by plate scans of live/fixed cells, Supplementary Fig. S7a and S8c). (d) Levels of [Ca^2+]i measured by Fura Red AM™ (n ≥ 4, mean, s.e.m.). (e–f) Quantification of Gag-GFP expression by reducing SDS-PAGE in lysates (35 μg) of cells which were pre-treated with/without KB-R7943 (n ≥ 3–4 mean, s.e.m.). […] (g) Graph quantitating Gag expression by p24^CA ELISA in lysates of cells (35 μg) that were pre-treated with/without LY294002 (n ≥ 3, mean, s.e.m.). Statistical comparisons in (a–g) were performed as illustrated (black/gray dashed lines) or described in Methods.
Figure 6 CSs control HIV-1 gene expression through intracellular signaling. HeLa rtTA-HIV(Gag-GFP) cells were pre-treated with/without pathway inhibitor overnight (~15 h) and treated with ~IC80s of CSs. […] Graphs quantifying the activation level (phospho/total protein) of each MAP/MAPK by western blot. […] The signaling pathway(s) used by a CS to inhibit HIV-1 expression was determined by detecting Gag-GFP fluorescence in cell lysates (~35 μg) by reducing SDS-PAGE after pre-treatment of cells with a MEK1/2 (12 μM U0126, white), p38α/β/β2 (15 μM SB203580/p38i, gray), or JNK1/2/3 (1.25 μM SP600125/JNKi, hatched) inhibitor (n ≥ 5–7, 4–8, and 3–7, resp., mean, s.e.m.). […]

[Ca^2+]i = Intracellular Ca2+ by Fura Red AM in HeLa rtTA-HIV(Gag-GFP) cells; assay type: cell-based, human; conditions: 5 µM pre-treatment ~2 h
Procedure: as §1, with “(a) Expression levels of NKA α1 mRNAs assayed by qRT-PCR. (b) HIV-1 Gag expression assayed by p24^CA ELISA of cell lysates (40 μg).” left out, “(d–g) CSs suppress HIV-1 gene expression independent of intracellular Ca^2+ flux/signaling and PI3K-AKT activation. HeLa rtTA-HIV(Gag-GFP) cells were pre-treated with either a chelator of [Ca^2+]i (5 µM BAPTA-AM, [Ca2+]ii), inhibitors of NCX Ca^2+-entry (5 µM KB-R7943, NCXi) or PI3K (10 μM LY294002, PI3Ki), or untreated (DMSO, no pathway inhibitor) for ~2 h prior to treatment with ~IC80s of CSs or DMSO for 4 h, and Dox induced for ~20 h.” left out, “Statistical comparisons in (a–g) were performed as illustrated (black/gray dashed lines) or described in Methods.” left out

N=C(N)SCCc1ccc(OCc2ccc([N+](=O)[O-])cc2)cc1 [KB-R7943]
reversal of CS inhibition of HIV-1 Gag-GFP expression by pathway inhibitor pre-treatment (HIV-1 Gag-GFP expression): did not reverse
effect on CS-triggered rise in [Ca^2+]i ([Ca^2+]i): blocked
